Values of other authors, collected in patent US20250367363A1, “METHODS OF LOCAL IRRIGATION FOR TREATING INFECTIONS” (Osteal Therapeutics, Inc., priority 2023, published 2025).
Where two headings read alike, the source gives them in different places. *1 amine or outer side, *2 acyl side, *3 side chain or, on linkers, in order; H or OH if unused. Where a SMILES comes first, the peptide text is derived from it. Bridges are numbered along the chain shown (N, C = ends). [ ]: non-standard residue; d: D form. The star is where a group is joined. hTyr(3S-OH,4S-OH,3'-OSO3H) = N[C@H](C(=O)O)[C@H](O)[C@@H](O)c1ccc(O)c(OS(=O)(=O)O)c1; pTerphenylCO(4''-OnC5H11) = CCCCCOc1ccc(-c2ccc(-c3ccc(C(=O)*)cc3)cc2)cc1; Orn(4R-OH,5R-OH) = O=C([C@H](C[C@@H](O)[C@@H](O)N[*:3])N[*:1])[*:2]; hTyr(3S-OH,4S-OH) = N[C@H](C(=O)O)[C@H](O)[C@@H](O)c1ccc(O)cc1; Pro(3S-OH,4S-Me) = C[C@H]1CN[C@H](C(=O)O)[C@H]1O; X1 = CCCCCOc1ccc(-c2cc(-c3ccc(C(=O)*)cc3)no2)cc1; Gln(3R-OH) = NC(=O)C[C@@H](O)[C@H](N)C(=O)O; Hyp = O=C(O)[C@@H]1C[C@@H](O)CN1

Tests used:
[1] = systemic

| Compound | Safe IV Concentration (Table 2 antibiotics) [mg/mL] | Safe Daily Dose ([1]; Table 2 antibiotics) | Safe IV Concentration (Table 3 antifungal agents) [mg/mL] | Safe Daily Dose ([1]; Table 3 antifungal agents) [mg] |
| --- | --- | --- | --- | --- |
| C[C@@H]1[C@H](O)[C@@H](C)/C=C/C=C/C=C/C=C/C=C/C=C/C=C/[C@H](O[C@@H]2O[C@H](C)[C@@H](O)[C@H](N)[C@@H]2O)C[C@@H]2O[C@](O)(C[C@@H](O)C[C@@H](O)[C@H](O)CC[C@@H](O)C[C@@H](O)CC(=O)O[C@H]1C)C[C@H](O)[C@H]2C(=O)O [Amphotericin B] | – | – | 0.25 | – |
| CCCCCOc1ccc(-c2ccc(-c3ccc(C(=O)N[C@H]4C[C@@H](O)[C@@H](O)NC(=O)[C@@H]5[C@@H](O)[C@@H](C)CN5C(=O)[C@H]([C@@H](C)O)NC(=O)[C@H]([C@H](O)[C@@H](O)c5ccc(O)cc5)NC(=O)[C@@H]5C[C@@H](O)CN5C(=O)[C@H]([C@@H](C)O)NC4=O)cc3)cc2)cc1 [Anidulafungin] ({pTerphenylCO(4''-OnC5H11)}-[Orn(4R-OH,5R-OH)]T[Hyp][hTyr(3S-OH,4S-OH)]T[Pro(3S-OH,4S-Me)]; lactam 1-C) | – | – | 1 | 200 |
| CC[C@H](C)C[C@H](C)CCCCCCCCC(=O)N[C@H]1C[C@@H](O)[C@@H](NCCN)NC(=O)[C@@H]2[C@@H](O)CCN2C(=O)[C@H]([C@H](O)CCN)NC(=O)[C@H]([C@H](O)[C@@H](O)c2ccc(O)cc2)NC(=O)[C@@H]2C[C@@H](O)CN2C(=O)[C@H]([C@@H](C)O)NC1=O [Caspofungin] | – | – | 0.5 | 70 |
| Cc1nnc(SCC2=C(C(=O)O)N3C(=O)[C@@H](NC(=O)Cn4cnnn4)[C@H]3SC2)s1 [Cefazolin] | 330 | 6 g/day | – | – |
| CO/N=C(\C(=O)N[C@@H]1C(=O)N2C(C(=O)[O-])=C(C[N+]3(C)CCCC3)CS[C@H]12)c1csc(N)n1 [Cefepime] | 40 | 6 g/day | – | – |
| C[C@@H](c1nc(-c2ccc(C#N)cc2)cs1)[C@](O)(Cn1cncn1)c1cc(F)ccc1F [Isavuconazole] | – | – | 1.488 | 1116 |
| CCCCCOc1ccc(-c2cc(-c3ccc(C(=O)N[C@H]4C[C@@H](O)[C@@H](O)NC(=O)[C@@H]5[C@@H](O)[C@@H](C)CN5C(=O)[C@H]([C@H](O)CC(N)=O)NC(=O)[C@H]([C@H](O)[C@@H](O)c5ccc(O)c(OS(=O)(=O)O)c5)NC(=O)[C@@H]5C[C@@H](O)CN5C(=O)[C@H]([C@@H](C)O)NC4=O)cc3)no2)cc1 [Micafungin] (X1-[Orn(4R-OH,5R-OH)]T[Hyp][hTyr(3S-OH,4S-OH,3'-OSO3H)][Gln(3R-OH)][Pro(3S-OH,4S-Me)]; lactam 1-C) | – | – | 1.5 | 150 |
| CN[C@H](CC(C)C)C(=O)N[C@H]1C(=O)N[C@@H](CC(N)=O)C(=O)N[C@H]2C(=O)N[C@H]3C(=O)N[C@H](C(=O)N[C@H](C(=O)O)c4cc(O)cc(O)c4-c4cc3ccc4O)[C@H](O)c3ccc(c(Cl)c3)Oc3cc2cc(c3O[C@@H]2O[C@H](CO)[C@@H](O)[C@H](O)[C@H]2O[C@H]2C[C@](C)(N)[C@H](O)[C@H](C)O2)Oc2ccc(cc2Cl)[C@H]1O [Vancomycin] | 5 | 45 to 60 mg/kg/day | – | – |

Continued, in another order:

| Safe IV Concentration (Table 2 antibiotics) [mg/mL] | Safe Daily Dose ([1]; Table 2 antibiotics) | Compound | Safe IV Concentration (Table 3 antifungal agents) [mg/mL] | Safe Daily Dose ([1]; Table 3 antifungal agents) [mg] |
| --- | --- | --- | --- | --- |
| 2 | 1.2 g/day | O=C(O)c1cn(C2CC2)c2cc(N3CCNCC3)c(F)cc2c1=O [Ciprofloxacin] | – | – |
| 18 | 2.7 g/day | CCC[C@@H]1C[C@@H](C(=O)N[C@@H]([C@H]2O[C@H](SC)[C@H](O)[C@@H](O)[C@H]2O)[C@H](C)Cl)N(C)C1 [Clindamycin] | – | – |
| 0.2 | 7 mg/kg/day | Gentamicin | – | – |
